Reference: patent US11383003B2, “Water soluble farnesol analogs and their use” (Kimberly-Clark Worldwide, Inc., priority 2012, dated 2022)

Columns and labels:
[1] = test system: C. albicans SC5314; assay: Germ tube formation (GTF %) in vitro screening, GlcNAc-triggered differentiation assay; type: cell-based, Candida albicans
Description: Based on the results in FIG. 3, single cell suspensions of SC5314 was prepared as follows. Stock culture of C. albicans SC5314 was streaked onto YPD agar (YPDA) and incubated at 30° C. overnight. Single colonies were subcultured in YPD broth (YPDB) and incubated 30° C., 200 rpm overnight. Overnight culture in YPDB was subcultured in YPD broth again and incubated 30° C., 200 rpm 48 h. Cells were collected by centrifugation (4000 g 10 min) at 4° C., washed three times with sterile water, and then resuspended in sterile water a final concentration of 10^9 colony-forming unit/ml (cfu/ml). The suspension were stored at 4° C. at least 1 d, then subcultured into YPDB to a final concentration of 10^6 cfu/ml. After 48 h incubation, cell suspension was examined under the microscope for single cell percentage. When the single cell percentage exceeded 80%, cells were collected and washed three times with water, then resuspended in water to a final concentration of 10^9 cfu/ml, and stored at 4° C. for no more than a month.
Two approaches were taken to determine the percentage of cells with germ tubes formed (GTF %). One way was to count the total cells at the start of incubation, and count the ungerminated cells after incubation, then calculate the GTF % as (1—ungerminated cells/total cells at 0 h)*100. Another way was to store the samples at 15° C. for 20 h after incubation, then count the germinated cells and total cells after disaggregation, then calculated the GTF % as (germinated cells/total cells after storage)*100. […] Therefore, for practical purposes, the GTF % was determined by the first method, that is, GTF %=(1—ungerminated cells/total cells at 0 h)*100, for the in vitro screening discussed herein.
A screening medium, containing 11 mM imidazole buffer, 3 mM MgSO4, and 2.6 mM N-acetyl-D-glucosamine (GlcNAc) has been used to study the effect of farnesol analogs on the germ tube formation of C. albicans. Here, the germ tube formation of C. albicans in modified screening media was assessed with various concentrations of imidazole buffer (10 mM, 30 mM and 50 mM) and MgSO4 (0.5 mM, 1.5 mM and 3 mM). […] It took 2 h to 3 h for the GTF % to reach above 80%. For practical purposes, the screening medium, containing 11 mM imidazole buffer, 0.5 mM MgSO4, and 2.6 mM N-acetyl-D-glucosamine (GlcNAc) was adopted for in vitro screening the quorum sensing inhibitory effect of farnesol compounds.
The in vitro screening assay was based on the N-acetylglucosamine (GlcNAc)-triggered differentiation assay (Hornby et al., “Quorum sensing in the dimorphic fungus Candida albicans is mediated by farnesol;” Applied and Environmental Microbiology 67:2982-2992; 2001), which included 0.56 ml of 0.1 M imidazole buffer (pH 6.5), 0.15 ml of 0.1 M MgSO4, 0.13 ml of 0.1 M GlcNAc, and 4.16 ml of sterilized water. Bioassays of quorum sensing candidates were conducted by the addition of the chemical, as a solution in 100% methanol, to the bioassay media; the final concentration of methanol was no greater than 1%.

[2] = test system: C. elegans glp4; sek1 infected with C. albicans SC5314; assay: Death rate of C. elegans glp4; sek1 infected with C. albicans SC5314, 96 well plates; type: in vivo, Caenorhabditis elegans
Description: Caenorhabditis elegans glp4; sek1 was used as the model for […]. Breger et al. (Breger, J.; Fuchs, B. B.; Aperis, G.; Moy, T. I., Ausubel, F. M., Mylonakis, E.; “Antifungal chemical compounds identified using a C. elegans pathogenicity assay.” PLoS Pathogens 3: 168-178; 2007) reported that the glp-4 mutation rendered the strain incapable of producing progeny at 25° C., and the sek-1 mutation enhanced the sensitivity of the strain to various pathogens, thereby decreasing the time for screening assays. It was observed that no progenies was produced by the Caenorhabditis elegans glp4; sek1 strain after 3 d incubation at 25° C.
The synchronization of C. elegans was achieved by collecting the eggs and arresting the larvae at L1 stage. The commonly used bleach treatment was able to release the eggs from the adult worms. However, it was observed that the released eggs were not always able to hatch after treated with sodium hypochlorite (0.2, 0.3, 0.4, 0.5, 0.7 or 1%) for 3-5 min. A modified egg laying method was developed to synchronize worms to L1 stage. In brief, stock cultures of C. elegans glp4; sek1, maintained on Nematode Growth Media plates (NGM plates), were subcultured onto NGM plates with OP 50 and incubated at 15° C. for 6-9 days. Then a chunk (1 cm^2) of agar with gravid adults was subcultured again onto NGM plates with OP50 and incubated at 15° C. After incubation of 3-7 days, the worms were gently washed off with 3 ml of M 9 buffer on the rotating platform (100 rpm). The plate was tilted on its lid to allow the liquid and worms drain to one side of the plate. The liquid and worms were aspirated off. The plate was washed again with M9 buffer three more times to remove OP50 as much as possible. After washing, the plate was incubated at 25° C. overnight to let the eggs hatch overnight. Since there was no OP50, the larvae were arrested at the L1 stage. The live C. elegans glp4; sek1 was quite curvy; whereas the dead C. elegans glp4; sek1 tended to be straight, and in most cases the dead worms with the hyphae of C. albicans pieced through the body. The curvy shape and movement after shaking were used as the criteria for live.
The In vitro screening assay, based on the method of Tampakakis et al (Tampakakis, E.; Okoli, I.; Mylonakis, E.; “A C. elegans-based, whole animal, in vivo screen for the identification of antifungal compounds.” Nature Protocols 3:1925-1931; 2008), is described as follows:
L1 worms, which were prepared by the modified egg-laying method, were collected by centrifugation at 675 g for 30 s at room temperature, and the supernatant was removed. Worms were resuspended in M 9 buffer and inoculated on NGM agar plates with OP50, ˜1000 worms per plate. After 2-3 days incubation at 25° C., the worms were washed off with M 9 buffer for the […] assay.
The control were worms fed on OP50.

[3] = test system: C. elegans glp4; sek1; assay: Toxicity: death rate of C. elegans glp4; sek1 fed on E. coli OP50; settings: for Death rate (%): 2 mM, worms fed on E. coli OP50, 25° C.
Description: The toxicity of the selected compounds/products were tested using the C. elegans glp4; sek1 fed on E. coli OP50 (Table 5).
Stock cultures of C. albicans SC 5314 was subcultured into 3 ml of YPD broth and incubated at 30° C. Then the overnight culture in broth was spread onto YPD agar, and incubated at 30° C. The 24 h old lawn of SC5314 was used to feed worms for 2 h at 25° C. The control were worms fed on OP50.
The worms were washed off the YPD plates and washed twice with M9 buffer. The worms were resuspended in screening media, M9 buffer with 0.3% Tween 80. The worm suspension (50 μl) was dispensed into the wells of 96-well plates, 20-30 worms/well. Aliquots (50 μl) of compounds in screening media were added to wells, 5 wells each compound. The 96 well plates were incubated at 25° C. for up to 5 days. Live and dead worms were counted during incubation, and the death rates of worms were calculated.

[4] = test system: C. albicans SC5314; assay: Effect of quorum sensing molecules on lag phase/growth of C. albicans in YPD broth; type: cell-based, Candida albicans; settings: 100 μM, 37° C., 6 h
[5] = cited from earlier work
[6] = 0.4 mM, 4 days, 25° C., two replicates
[7] = 0.4 mM, 5 days, 25° C., two replicates
[8] = 1.0 mM, 4 days, 25° C., two replicates
[9] = 1.0 mM, 5 days, 25° C., two replicates
[10] = 2.0 mM, 4 days, 25° C., two replicates (* three)
[11] = 2.0 mM, 5 days, 25° C., two replicates (* three)
[12] = 3.0 mM, 4 days, 25° C., two replicates
[13] = 3.0 mM, 5 days, 25° C., two replicates

Structure (SMILES) | GTF % (mean ± SEM, n = 2) ([1]; 100 μM, * one replicate) | GTF % (mean ± SEM, n = 2) ([1]; 200 μM) | % change in the death rate compared to the control [2, 6] | % change in the death rate compared to the control [2, 7] | % change in the death rate compared to the control [2, 8] | % change in the death rate compared to the control [2, 9] | % change in the death rate compared to the control [2, 10] | % change in the death rate compared to the control [2, 11] | % change in the death rate compared to the control [2, 12] | % change in the death rate compared to the control [2, 13] | Death rate (%) [3] | effect on the growth of C. albicans SC5314 (in words) [4] | further results
CC(C)=CCC/C(C)=C/CC/C(C)=C/COC(=O)CCC(=O)O [#1 synthesized analog] | 55.9 ± 8.2% | 31.2 ± 5.0% | −43 ± 8% | −30 ± 2% | −33 ± 5% | −29 ± 11% | −23 ± 4% | −34 ± 11% | 20 ± 3% | 10 ± 9% | 3.3 ± 1.2% |  | effect on death rate of infected C. elegans (in words) ([2]; 0.4 mM to 2 mM): significantly reduced the death rate; effect on death rate of infected C. elegans (in words) ([2]; 3 mM): increased the death rate; effect on death rate of infected C. elegans (in words) ([2]; key finding, no concentration stated): significantly reduced the death rate
CC(C)=CCC/C(C)=C/CC/C(C)=C/CO [E,E-farnesol, reference compound] | 44.0 ± 3.1% | 18.4 ± 2.9% |  |  |  |  |  |  |  |  | 7% | little effect on the growth | % change in the death rate compared to the control ([2]; 0.4 mM, day 1, initial screening): −4%; % change in the death rate compared to the control ([2]; 0.4 mM, day 4, initial screening): −16%; % change in the death rate compared to the control ([2]; 0.4 mM, day 5, initial screening): −19%; effect on death rate of infected C. elegans (in words) ([2]; 0.4 mM, initial screening): reduced the death rate slightly; % change in the death rate compared to the control ([2]; 1 mM, day 1, initial screening): −12%; % change in the death rate compared to the control ([2]; 1 mM, day 4, initial screening): 14%; % change in the death rate compared to the control ([2]; 1 mM, day 5, initial screening): 10%; % change in the death rate compared to the control ([2]; 2 mM, day 1, initial screening): −8%; % change in the death rate compared to the control ([2]; 2 mM, day 4, initial screening): 19%; % change in the death rate compared to the control ([2]; 2 mM, day 5, initial screening): 8%; % change in the death rate compared to the control ([2]; 3 mM, day 1, initial screening): −21%; % change in the death rate compared to the control ([2]; 3 mM, day 4, initial screening): 23%; % change in the death rate compared to the control ([2]; 3 mM, day 5, initial screening): 12%; effect on death rate of infected C. elegans (in words) ([2]; higher concentration (above 0.4 mM), initial screening): resulted in higher death rate of the worm; toxicity to C. elegans fed on E. coli OP50 (in words) ([3]; in vivo): slightly higher than the control; solubility in water (in words) [5]: insoluble in water
OCCc1ccc(O)cc1 [tyrosol] |  |  |  |  |  |  |  |  |  |  |  | little effect on the growth | 
CC(C)=CCC/C(C)=C/CC/C(C)=C/COC(=O)CCC(=O)OCCCO [#3 synthesized analog] | 66.9 ± 1.5% | 32.9 ± 1.0% | −6 ± 7% | 10 ± 3% | 1 ± 6% | 3 ± 8% | −12 ± 9% | 9 ± 10% | −2 ± 2% | 7 ± 1% | 6% |  | effect on death rate of infected C. elegans (in words) ([2]; 0.4 mM to 3 mM (the tested four concentrations)): did not have significant effect on the death of the worms
